pIC50: −log10 of the molar value.
System: not listed separately
Test: Mouse Pharmacokinetics Studies
Assay type: in vivo
Details: male, C57BL/6, mouse, plasma, po, 50 mg/kg, male C57BL/6 mice, 50 mg/kg oral gavage, non-fasted, read-out: AUC 0-24
Method: Compounds were formulated in 5% DMSO, 5% Solutol, and 90% PBS without Ca and Mg (pH 7.4) at a concentration of 5 mg/mL. Male C57BL/6 mice (n=3/compound) were administered a 50 mg/kg dose of each compound by oral gavage under a non-fasted condition. Blood samples were collected via the saphenous vein onto K2-EDTA at 0.25, 0.5, 1, 2, 4, 8 and 24 hours after dosing, and plasma was prepared and stored at −80° C. until analysis. Plasma sample preparation for analysis was done by protein precipitation using acetonitrile (including Verapamil as an internal standard) followed by centrifugation. Compound concentrations were determined in extracted plasma using LC-MS/MS relative to a 12 point standard curve covering the 1 to 4000 nM range. Non-compartmental analysis using Phoenix WinNonlin was used to estimate pharmacokinetic parameters including area under the curve, clearance, and half-life. The administered dose was confirmed by analysis of residual dosing material by UPLC-UV relative to a single point calibration sample.

AUC(0-t) [µM·h] | Compound
43 | O=C(N[C@@H]1CCC[C@H](Nc2cc(C(F)(F)F)nc3ccc(Cl)cc23)C1)N1CC2(CC2)C1 [Example 6-9]

Same assay, conditions: male, C57BL/6, mouse, plasma, po, 50 mg/kg, male C57BL/6 mice, 50 mg/kg oral gavage, non-fasted, read-out: AUC 0-last

AUC(0-t) [µM·h] | Compound
42 | O=C(N[C@@H]1CCC[C@H](Nc2cc(C(F)(F)F)nc3ccc(Cl)cc23)C1)N1CC2(CC2)C1 [Example 6-9]

Same assay, conditions: mouse; male C57BL/6 mice, 50 mg/kg oral gavage, non-fasted, plasma

Cmax [µM] | Compound
5.1 | O=C(N[C@@H]1CCC[C@H](Nc2cc(C(F)(F)F)nc3ccc(Cl)cc23)C1)N1CC2(CC2)C1 [Example 6-9]

Same assay, conditions: mouse; male C57BL/6 mice, 50 mg/kg oral gavage, non-fasted, plasma; read-out: PK: Tmax

Tmax [h] | Compound
3.3 | O=C(N[C@@H]1CCC[C@H](Nc2cc(C(F)(F)F)nc3ccc(Cl)cc23)C1)N1CC2(CC2)C1 [Example 6-9]

System: Human LAD2 cells
Test: Mast Cell Beta-Hexosaminidase Release Assay (500 nM Cortistatin-14)
Assay type: cell-based
Details: read-out: MRGPRX2 Antagonist Activity
Method: Human LAD2 cells (NIH) were maintained in an incubator at 37° C. with 5% CO2 and cultured in StemPro-34 serum-free media (Gibco 10639011) supplemented with 2 mM L-glutamine, 100 U/ml penicillin, […] streptomycin and 100 ng/ml SCF (Invitrogen PEP0860), at a concentration of 2-5×10^5 cells/mL, with hemidepletion every 1-2 weeks.
Cells were transferred to SCF-Free medium at 2.5×10^5 cells/mL and kept in an incubator overnight. On the day of the assay, cells were washed twice in Assay Buffer (final concentrations 10 mM HEPES, 137 mM NaCl, 5.6 mM D-glucose, 2.7 mM KCl, 1 mM MgCl, 1.8 mM CalCl2, 0.4 mM Na2HPO4·7H2O, 0.04% BSA, pH=7.4) and plated in a 96-well v-bottom plate at 20,000 cells per well in 80 μL Assay Buffer. […] After incubation, 50 μL of 400 mM Glycine buffer (pH 10.7) was added into each well and the plate was read on a Molecular Devices SpectraMax iD5 plate reader (absorbance at 405 nm with reference filter at 620 nm). After background subtraction, the percentage degranulation (percent beta-hexosaminidase release) was calculated as 100×(supernatant values)/(supernatant+lysate values), followed by analysis using GraphPad Prism software to calculate an IC50 value for each compound. […]

pIC50 | Compound
> 7.00 | N#CCCn1ncc(C(=O)N[C@@H]2CCC[C@H](Nc3cc(C(F)(F)F)nc4ccc(Cl)cc34)C2)c1Cl [Example 4-420]

Target: T1, human MRGPR X2 (Homo sapiens, UniProt Q96LB1)
T1 construct: expressed in transfected cells
T1 sequence (Q96LB1 1-330): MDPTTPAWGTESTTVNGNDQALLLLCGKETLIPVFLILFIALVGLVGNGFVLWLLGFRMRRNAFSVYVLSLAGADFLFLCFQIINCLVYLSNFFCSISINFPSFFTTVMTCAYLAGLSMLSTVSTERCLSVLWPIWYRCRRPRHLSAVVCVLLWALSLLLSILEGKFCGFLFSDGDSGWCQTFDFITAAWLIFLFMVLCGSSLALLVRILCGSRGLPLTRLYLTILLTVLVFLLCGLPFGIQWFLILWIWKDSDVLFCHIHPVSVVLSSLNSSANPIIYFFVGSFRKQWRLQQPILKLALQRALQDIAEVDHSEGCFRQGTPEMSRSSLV
Test: MRGPR X2 activity, IP-One Gq HTRF antagonist assay versus 0.3 μM Cortistatin-14
Assay type: cell-based
Details: CHO cells expressing human MRGPR X2; versus 0.3 μM Cortistatin-14 agonist; IP-1 HTRF; read-out: MRGPRX2 Antagonist Activity
Method: CHO cells stably transfected to express human MRGPR X2 were maintained in an incubator at 37° C. with 5% CO2 and grown in F12 (HAM) media with 10% fetal bovine serum (FBS), 1% Glutamax, 1% penicillin/streptomycin, 800 μg/mL Geneticin (G418), and 300 μg/mL Hygromycin B.
Cells were plated in a 384-well assay plate at 20,000 cells per well in 12 μL of Opti-MEM and kept in an incubator overnight. On the day of the assay, compounds solubilized at 10 mM in DMSO were added as a 10-point curve (30 μM final top concentration with 1:3 serial dilutions) using a Tecan D300E digital dispenser. Agonists were diluted in assay buffer (final concentrations of 5.7 mM Tris-HCl, 43 mM NaCl, 50 mM LiCl, pH=8) and 2 μL of the agonist Cortistatin-14 (CPC Scientific, catalog CORT-002) are added to each well. Final concentrations of agonists were 0.3 μM Cortistatin. Final concentrations of DMSO were kept consistent across the plate. Plates were incubated in the dark for 1 h at 37° C. and then for 1 h at room temperature. IP-1 standards and HTRF detection reagents were added according to the IP-One—Gq Kit purchased from Cisbio (part number 62IPAPEJ) and incubated in the dark for 1 h at room temperature. The plate was read on a Molecular Devices SpectraMax iD5 plate reader. The HTRF ratio was calculated from the raw data and graphed using GraphPad Prism to calculate an IC50 value for each compound.
The activity ranges are denoted as follows: “+++++” denotes antagonist activity<100 nM; “++++” denotes antagonist activity between 100 and 500 nM; “+++” denotes activity between 501 and 1000 nM; “++” denotes activity between 1001 and 2500 nM; and “+” denotes activity>2500 nM

pIC50 | Compound
5.60 to 6.00 | O=C(N[C@@H]1CCC[C@H](Nc2cc(C(F)(F)F)nc3ccccc23)C1)C1(c2cnccn2)CC1 (racemic) [Example 4-29]
5.60 to 6.00 | COc1ccc(COc2cc(C(=O)N[C@@H]3CCC[C@H](Nc4cc(C(F)(F)F)nc5ccccc45)C3)on2)cc1 (racemic) [Example 4-35]
5.60 to 6.00 | CCCc1nnsc1C(=O)N[C@@H]1CCC[C@H](Nc2cc(C(F)(F)F)nc3ccccc23)C1 (racemic) [Example 4-40]
5.60 to 6.00 | CC(C)Cc1cc(C(=O)N[C@@H]2CCC[C@H](Nc3cc(C(F)(F)F)nc4ccccc34)C2)n(C)n1 (racemic) [Example 4-90]
5.60 to 6.00 | O=C(CN1C(=O)COc2ccccc21)N[C@@H]1CCC[C@H](Nc2cc(C(F)(F)F)nc3ccccc23)C1 (racemic) [Example 4-100]
> 7.00 | COc1ccc(C(=O)N[C@@H]2CCC[C@H](Nc3cc(C(F)(F)F)nc4ccc(Cl)cc34)C2)cc1 [Example 1, N-((1R,3S)-3-((6-chloro-2-(trifluoromethyl)quinolin-4-yl)amino)cyclohexyl)-4-methoxybenzamide]
6.30 to 7.00 | O=C(N[C@@H]1CCC[C@H](Nc2cc(C(F)(F)F)nc3ccccc23)C1)c1ccc(F)cc1 [Example 1-8]
6.00 to 6.30 | O=C(N[C@@H]1CCC[C@H](Nc2nc(C(F)(F)F)nc3ccccc23)C1)c1ccc(F)cc1 [Example 3, 4-fluoro-N-[(1R,3S)-3-[[2-(trifluoromethyl)quinazolin-4-yl]amino]cyclohexyl]benzamide]
6.30 to 7.00 | N#Cc1ccccc1C(=O)N[C@@H]1CCC[C@H](Nc2cc(C(F)(F)F)nc3ccccc23)C1 [Example 3-6]
5.60 to 6.00 | Cc1nc(N(C)C)ccc1C(=O)N[C@@H]1CCC[C@H](Nc2cc(C(F)(F)F)nc3ccccc23)C1 [Example 4-22]
5.60 to 6.00 | O=C(N[C@@H]1CCC[C@H](Nc2cc(C(F)(F)F)nc3ccccc23)C1)c1cccc(N2CCCC2=O)c1 [Example 4-172]
5.60 to 6.00 | N#CC1(C(=O)N[C@@H]2CCC[C@H](Nc3cc(C(F)(F)F)nc4ccccc34)C2)CC1 [Example 4-183]
6.30 to 7.00 | O=C(N[C@@H]1CCC[C@H](Nc2cc(C(F)(F)F)nc3ccc(Cl)cc23)C1)c1cccc(F)c1 [Example 4-239]
> 7.00 | CCS(=O)(=O)Nc1cccc(C(=O)N[C@@H]2CCC[C@H](Nc3cc(C(F)(F)F)nc4ccc(Cl)cc34)C2)c1 [Example 4-241]
> 7.00 | O=C(N[C@@H]1CCC[C@H](Nc2cc(C(F)(F)F)nc3ccc(Cl)cc23)C1)c1cnn(C(F)F)c1 [Example 4-399]
> 7.00 | O=C(N[C@@H]1CCC[C@H](Nc2cc(C(F)(F)F)nc3ccc(Cl)cc23)C1)c1ccc(F)nc1 [Example 4-411]
> 7.00 | N#CCCn1ncc(C(=O)N[C@@H]2CCC[C@H](Nc3cc(C(F)(F)F)nc4ccc(Cl)cc34)C2)c1Cl [Example 4-420]
> 7.00 | CN(C)c1ccc(C(=O)N[C@@H]2CCC[C@H](Nc3cc(C(F)(F)F)nc4ccc(F)cc34)C2)cc1 [Example 4-421]
> 7.00 | CN(C)c1ncc(C(=O)N[C@@H]2CCC[C@H](Nc3cc(C(F)(F)F)nc4ccc(Cl)cc34)C2)s1 [Example 4-422]
> 7.00 | O=C(N[C@@H]1CCC[C@H](Nc2cc(C(F)(F)F)nc3ccc(Cl)cc23)C1)c1cnc(NCCF)nc1 [Example 4-423]
> 7.00 | O=C(N[C@@H]1CCC[C@H](Nc2cc(C(F)(F)F)nc3ccc(Cl)cc23)C1)c1ccsn1 [Example 4-425]
> 7.00 | Nc1ncc(C(=O)N[C@@H]2CCC[C@H](Nc3cc(C(F)(F)F)nc4ccc(Cl)cc34)C2)cn1 [Example 15, 2-amino-N-[(1R,3S)-3-{[6-chloro-2-(trifluoromethyl)quinolin-4-yl]amino}cyclohexyl]pyrimidine-5-carboxamide]
> 7.00 | O=C(N[C@@H]1CCC[C@H](Nc2cc(C(F)(F)F)nc3ccc(Cl)cc23)C1)c1ccn(CCF)c1 [Example 19, N-((1R,3S)-3-((6-chloro-2-(trifluoromethyl)quinolin-4-yl)amino)cyclohexyl)-1-(2-fluoroethyl)-1H-pyrrole-3-carboxamide]
